Laboratory results from the supplement of paper PMC10307832.

Legend:
Test in all cases: relative viability (nuclei count vs DMSO), 5 days (fraction); higher = more cells survive
[1] = test system: NCI-H1734
Procedure, shortened: (§1)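 After 5 days of treatment, lung cancer cells in 1536-well plates were fixed and stained in a single step (final 0.05% Triton X-100, 1% formaldehyde, 1 ug/ml Hoechst) and their nuclei counted on 4× images. Treatment had been applied by pin tool the day after seeding as one drug alone or as a fixed anchor-drug dose with five library-drug doses (not always all listed) in √10 steps. Relative viability is the nuclei count of treated wells divided by that of vehicle wells, and values are medians of duplicate plates.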

[2] = test system: NCI-H838
Procedure, shortened: as §1

[3] = test system: COR-L23
Procedure, shortened: as §1

[4] = test system: NCI-H1650
Procedure, shortened: as §1

[5] = test system: NCI-H1975
Procedure, shortened: as §1

[6] = test system: HCC-366
Procedure, shortened: as §1

[7] = test system: NCI-H2023
Procedure, shortened: as §1

[8] = test system: LOU-NH91
Procedure, shortened: as §1

[9] = test system: NCI-H1651
Procedure, shortened: as §1

[10] = test system: NCI-H2085
Procedure, shortened: as §1

[11] = test system: LU99A
Procedure, shortened: as §1

[12] = test system: NCI-H1355
Procedure, shortened: as §1

[13] = test system: BEN
Procedure, shortened: as §1

[14] = test system: NCI-H1437
Procedure, shortened: as §1

[15] = test system: CAL-12T
Procedure, shortened: as §1

[16] = test system: NCI-H2342
Procedure, shortened: as §1

[17] = test system: NCI-H460
Procedure, shortened: as §1

[18] = test system: NCI-H1793
Procedure, shortened: as §1

[19] = test system: SK-LU-1
Procedure, shortened: as §1

[20] = test system: NCI-H441
Procedure, shortened: as §1

[21] = test system: NCI-H358
Procedure, shortened: as §1

Structure (SMILES): O=c1cc(-c2cccc3c2Sc2ccccc2S3)oc(N2CCOCC2)c1 + CC(=O)c1c(C)c2cnc(Nc3ccc(N4CCNCC4)cn3)nc2n(C2CCCC2)c1=O [Palbociclib] (partner 0.5 µM)
- relative viability ([1]; first compound 0.08 µM): 0.33
- relative viability ([1]; first compound 0.253 µM): 0.344
- relative viability ([1]; first compound 0.8 µM): 0.414
- relative viability ([1]; first compound 8 µM): 0.357
- relative viability ([2]; first compound 0.08 µM): 0.187
- relative viability ([2]; first compound 0.253 µM): 0.265
- relative viability ([2]; first compound 0.8 µM): 0.202
- relative viability ([2]; first compound 2.53 µM): 0.212
- relative viability ([2]; first compound 8 µM): 0.222
- relative viability ([3]; first compound 0.08 µM): 0.291
- relative viability ([3]; first compound 0.253 µM): 0.307
- relative viability ([3]; first compound 0.8 µM): 0.393
- relative viability ([3]; first compound 2.53 µM): 0.334
- relative viability ([3]; first compound 8 µM): 0.34
- relative viability ([4]; first compound 0.08 µM): 0.377
- relative viability ([4]; first compound 0.253 µM): 0.38
- relative viability ([4]; first compound 0.8 µM): 0.284
- relative viability ([4]; first compound 2.53 µM): 0.311
- relative viability ([4]; first compound 8 µM): 0.353
- relative viability ([5]; first compound 0.08 µM): 0.623
- relative viability ([5]; first compound 0.253 µM): 0.863
- relative viability ([5]; first compound 0.8 µM): 0.465
- relative viability ([5]; first compound 2.53 µM): 0.564
- relative viability ([5]; first compound 8 µM): 0.744
- relative viability ([6]; first compound 0.08 µM): 0.436
- relative viability ([6]; first compound 0.253 µM): 0.349
- relative viability ([6]; first compound 0.8 µM): 0.487
- relative viability ([6]; first compound 2.53 µM): 0.401
- relative viability ([6]; first compound 8 µM): 0.51
- relative viability ([7]; first compound 0.08 µM): 0.379
- relative viability ([7]; first compound 0.253 µM): 0.407
- relative viability ([7]; first compound 0.8 µM): 0.407
- relative viability ([7]; first compound 2.53 µM): 0.369
- relative viability ([7]; first compound 8 µM): 0.291
- relative viability ([8]; first compound 0.08 µM): 0.528
- relative viability ([8]; first compound 0.253 µM): 0.518
- relative viability ([8]; first compound 0.8 µM): 0.543
- relative viability ([8]; first compound 2.53 µM): 0.535
- relative viability ([8]; first compound 8 µM): 0.571
- relative viability ([9]; first compound 0.08 µM): 0.523
- relative viability ([9]; first compound 0.253 µM): 0.537
- relative viability ([9]; first compound 0.8 µM): 0.524
- relative viability ([9]; first compound 2.53 µM): 0.509
- relative viability ([9]; first compound 8 µM): 0.537
- relative viability ([10]; first compound 0.08 µM): 0.431
- relative viability ([10]; first compound 0.253 µM): 0.508
- relative viability ([10]; first compound 0.8 µM): 0.471
- relative viability ([10]; first compound 2.53 µM): 0.467
- relative viability ([10]; first compound 8 µM): 0.412
- relative viability ([11]; first compound 0.08 µM): 0.413
- relative viability ([11]; first compound 0.253 µM): 0.417
- relative viability ([11]; first compound 0.8 µM): 0.491
- relative viability ([11]; first compound 2.53 µM): 0.463
- relative viability ([11]; first compound 8 µM): 0.449
- relative viability ([12]; first compound 0.08 µM): 0.396
- relative viability ([12]; first compound 0.253 µM): 0.428
- relative viability ([12]; first compound 0.8 µM): 0.371
- relative viability ([12]; first compound 2.53 µM): 0.401
- relative viability ([12]; first compound 8 µM): 0.264
- relative viability ([13]; first compound 0.08 µM): 0.464
- relative viability ([13]; first compound 0.253 µM): 0.447
- relative viability ([13]; first compound 0.8 µM): 0.477
- relative viability ([13]; first compound 2.53 µM): 0.452
- relative viability ([13]; first compound 8 µM): 0.499
- relative viability ([14]; first compound 0.08 µM): 0.302
- relative viability ([14]; first compound 0.253 µM): 0.344
- relative viability ([14]; first compound 0.8 µM): 0.276
- relative viability ([14]; first compound 2.53 µM): 0.25
- relative viability ([14]; first compound 8 µM): 0.285
- relative viability ([15]; first compound 0.08 µM): 0.369
- relative viability ([15]; first compound 0.253 µM): 0.57
- relative viability ([15]; first compound 0.8 µM): 0.498
- relative viability ([15]; first compound 2.53 µM): 0.404
- relative viability ([15]; first compound 8 µM): 0.292
- relative viability ([16]; first compound 0.08 µM): 0.52
- relative viability ([16]; first compound 0.253 µM): 0.548
- relative viability ([16]; first compound 0.8 µM): 0.515
- relative viability ([16]; first compound 2.53 µM): 0.522
- relative viability ([16]; first compound 8 µM): 0.575
- relative viability ([17]; first compound 0.08 µM): 0.0971
- relative viability ([17]; first compound 0.253 µM): 0.159
- relative viability ([17]; first compound 0.8 µM): 0.13
- relative viability ([17]; first compound 2.53 µM): 0.154
- relative viability ([17]; first compound 8 µM): 0.135
- relative viability ([18]; first compound 0.08 µM): 0.21
- relative viability ([18]; first compound 0.253 µM): 0.308
- relative viability ([18]; first compound 0.8 µM): 0.311
- relative viability ([18]; first compound 2.53 µM): 0.257
- relative viability ([18]; first compound 8 µM): 0.273
- relative viability ([19]; first compound 0.08 µM): 0.397
- relative viability ([19]; first compound 0.253 µM): 0.354
- relative viability ([19]; first compound 0.8 µM): 0.418
- relative viability ([19]; first compound 2.53 µM): 0.327
- relative viability ([19]; first compound 8 µM): 0.368
- relative viability ([20]; first compound 0.08 µM): 0.189
- relative viability ([20]; first compound 0.253 µM): 0.187
- relative viability ([20]; first compound 0.8 µM): 0.215
- relative viability ([20]; first compound 2.53 µM): 0.203
- relative viability ([20]; first compound 8 µM): 0.18
- relative viability ([21]; first compound 0.08 µM): 0.135
- relative viability ([21]; first compound 0.253 µM): 0.144
- relative viability ([21]; first compound 0.8 µM): 0.13
- relative viability ([21]; first compound 2.53 µM): 0.134
- relative viability ([21]; first compound 8 µM): 0.152
